# Results: patent US4730042A, “Compounds 1 or 3-hydroxy-4-benzyl-6-methyl-7-(4-isopropylamino-butoxy)-1,3-dihydro[3,4- C]pyridine and 2-methyl-3-(4-isopropyl-aminobutoxy)-4-(1'-morphilinomethyl)-5-hydroxyme thyl-6-benzyl pyridine, useful for treating cardiac arrhythmias” (priority 1985, dated 1988)
# Tests used:
# [1] = system: aconitine-induced arrhythmia; test: Antiarrhythmic effect on the aconitine-induced arrhythmia in anesthetized rats; type: in vivo, male Sprague-Dawley rats; conditions: for ED50: Rattus norvegicus, iv, read-out: Antiarrhythmic effect ED 50; for Antiarrhythmic effect, maximum effect / maximum effect compared with barucainid, in words: rat; for Antiarrhythmic effect, maximum effect: i.v., maximum relative increase in the arrhythmogenic aconitine dose; for maximum effect compared with barucainid, in words: versus barucainid
# Method: The novel compounds have a powerful antiarrhythmic action and are useful for the therapy of cardiac arrhythmias. The pharmacological investigations to determine the antiarryhythmic action were carried out using the antiarrhythmic barucainid as a comparison.
# (§1) The test animals used were male Sprague-Dawley rats weighing 180-300 g. Anesthesia was effected with 100 mg/kg of thiobutabarbital, administered intraperitoneally. To induce arrhythmias, aconitine was infused at a dosage rate of 5 μg per kg per min. The test substances were administered intravenously, directly before the beginning of the aconitine infusion. The parameter measured is the amount of aconitine which leads to the first signs of arrhythmias (disappearance of P, ventricular extrasystoles and tachycardia) in the ECG of the animals. In the case of untreated animals, the arrhythmogenic aconitine dose was 16.5±0.34 μg/kg (n=120). The dose which causes a 50% increase was determined from the linear relationship between log dose (mg/kg) of the test substances and the relative increase in the arrhythmogenic aconitine dose (Δ%).
# The maximum effect achieved (Δ%) is evaluated as a further criterion of the antiarrhythmic efficacy.
# [2] = system: ECG (ST depression, disappearance of P, extrasystoles); test: Toxic changes in the ECG and therapeutic index in the rat; type: in vivo; conditions: i.v., toxic effect in the ECG (occurrence of extrasystoles)
# Method: as §1
# (§2) The dose of test substance which causes toxic changes in the ECG (ST depression, disappearance of P, extrasystoles) was also determined. The quotient of the ECG-toxic dose and the antiarrhythmic ED 50 was evaluated as a measure of the therapeutic index of the novel compounds.
# [3] = as above; type: in vivo; conditions: in vivo, iv, quotient of ECG-toxic dose and antiarrhythmic ED 50
# Method: as §1, §2
Compound,ED50 [1] [mg/kg],"Antiarrhythmic effect, maximum effect [1]",ECG-toxic dose [2] [mg/kg],selectivity ratio [3],"maximum effect compared with barucainid, in words [1]"
"Cc1nc(Cc2ccccc2)c2c(c1OCCCCNC(C)C)COC2 [Barucainid, reference compound]",1.95,105 Δ %,10.0,5.13,–
"Cc1nc(Cc2ccccc2)c(CO)c(CN2CCOCC2)c1OCCCCNC(C)C.Cl.Cl.Cl [Example 1, 2-methyl-3-(4-isopropylaminobutoxy)-4-(1'-morpholinomethyl)-5-hydroxymethyl-6-benzylpyridine trihydrochloride]",0.19,111 Δ %,2.15,11.3,–
"Cc1nc(Cc2ccccc2)c2c(c1OCCCCNC(C)C)C(O)OC2.Cl.Cl (centres unmarked) [Example 2, 1-hydroxy-4-benzyl-6-methyl-7-(4-isopropylaminobutoxy)-1,3-dihydrofuro[3,4-C]pyridine dihydrochloride]",0.468,239 Δ %,> 4.64,> 9.9,superior to barucainid
"Cc1nc(Cc2ccccc2)c2c(c1OCCCCNC(C)C)COC2O.Cl.Cl (centres unmarked) [Example 3, 3-hydroxy-4-benzyl-6-methyl-7-(4-isopropylaminobutoxy)-1,3-dihydrofuro[3,4-C]pyridine dihydrochloride]",0.695,276 Δ %,10,14.4,superior to barucainid
"Cc1nc(Cc2ccc(O)cc2)c2c(c1OCCCCNC(C)C)COC2 [Example 4, 4-(p-hydroxybenzyl)-6-methyl-7-(4-isopropylaminobutoxy)-1,3-dihydrofuro[3,4-C]pyridine]",2.69,263 Δ %,46.4,17.3,superior to barucainid
